The results in this text go back to PubChem BioAssay AID1845201 (Molecular Pharmacology Branch, DTP, NCI, 2023).

The test has as its system COR L88 complex tumor spheroid viability. In words: Anticancer human tumor COR L88 cell line growth inhibition.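 As to all read-outs here: compound exposure lasted 7 days before viability readout.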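 As to viability, T/C: percent of DMSO vehicle-treated spheroids = 100%.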 Conditions: for viability, T/C: stronger effect = lower value. Put shortly:
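Complex spheroids of malignant cells with endothelial cells and mesenchymal stem cells; agents alone or combined, from near clinical Cmax (or 10 microM if unknown) down in half-log steps, 0.25% DMSO final.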

A word on the viability, T/C: it is the ratio of treated to control. As usually defined, the IC50 is the concentration that inhibits the measured activity by half. Consider `COc1cc2c(cc1O)CCNC21CSC2c3c(OC(C)=O)c(C)c4c(c3C(COC1=O)N1C(O)C3Cc5cc(C)c(OC)c(O)c5C(C21)N3C)OCO4` (stereo unspecified), for which the viability, T/C by setting is: (compound 30 pM) 103% [middle of 10 runs]; (compound 94.9 pM) 110% [middle of 10 runs]; (compound 0.0003 µM) 71.5% [middle of 10 runs]; (compound 0.000949 µM) 59.8% [middle of 10 runs]; (compound 0.003 µM) 0.67% [middle of 10 runs]. For the same compound, the half-maximal inhibitory concentration (IC50) (compound alone, run of 10/25/2019) is 1.02 nM [middle of 10 runs].
Consider `Cn1ncnc1[C@H]1c2n[nH]c(=O)c3cc(F)cc(c23)N[C@@H]1c1ccc(F)cc1` + COc1cc2c(cc1O)CCNC21CSC2c3c(OC(C)=O)c(C)c4c(c3C(COC1=O)N1C(O)C3Cc5cc(C)c(OC)c(O)c5C(C21)N3C)OCO4, for which the IC50 is 255 nM (curve of first compound, second compound 30 pM); 120 nM (curve of first compound, second compound 94.9 pM); 40.1 nM (curve of first compound, second compound 0.0003 µM); less than 9.49 nM (curve of first compound, second compound 0.000949 µM); less than 9.49 nM (curve of first compound, second compound 0.003 µM). The viability, T/C by setting is: (second compound 30 pM, first compound 0.00949 µM) 90.9%; (second compound 30 pM, first compound 0.03 µM) 72.8%; (second compound 30 pM, first compound 0.0949 µM) 58.9%; (second compound 30 pM, first compound 0.3 µM) 47.3%; (second compound 30 pM, first compound 0.949 µM) 43.9%; (second compound 30 pM, first compound 3 µM) 37.3%. In addition, the viability, T/C by setting is: (second compound 94.9 pM, first compound 0.00949 µM) 77.1%; (second compound 94.9 pM, first compound 0.03 µM) 61.3%; (second compound 94.9 pM, first compound 0.0949 µM) 50.5%; (second compound 94.9 pM, first compound 0.3 µM) 45.8%; (second compound 94.9 pM, first compound 0.949 µM) 42.5%; (second compound 94.9 pM, first compound 3 µM) 38.5%. Besides, the viability, T/C reads like this: (second compound 0.0003 µM, first compound 0.00949 µM) 57.9%; (second compound 0.0003 µM, first compound 0.03 µM) 51.9%; (second compound 0.0003 µM, first compound 0.0949 µM) 46.1%; (second compound 0.0003 µM, first compound 0.3 µM) 43.6%; (second compound 0.0003 µM, first compound 0.949 µM) 39.4%; (second compound 0.0003 µM, first compound 3 µM) 41%. For the same compound, the viability, T/C is 53.6% (second compound 0.000949 µM, first compound 0.00949 µM); 45% (second compound 0.000949 µM, first compound 0.03 µM); 44.2% (second compound 0.000949 µM, first compound 0.0949 µM); 36.2% (second compound 0.000949 µM, first compound 0.3 µM); 13.9% (second compound 0.000949 µM, first compound 0.949 µM); 2.75% (second compound 0.000949 µM, first compound 3 µM). Besides, the viability, T/C reads like this: (second compound 0.003 µM, first compound 0.00949 µM) 1.06%; (second compound 0.003 µM, first compound 0.03 µM) 0.96%; (second compound 0.003 µM, first compound 0.0949 µM) 0.96%; (second compound 0.003 µM, first compound 0.3 µM) 0.79%; (second compound 0.003 µM, first compound 0.949 µM) 1.64%; (second compound 0.003 µM, first compound 3 µM) 2.68%.
